Consider 2 molecules from article PMC5831597, “Alleviating the Intestinal Absorption of Rhein in Rhubarb through Herb Compatibility in Tiaowei Chengqi Tang in Caco-2 Cells” (Evidence-based Complementary and Alternative Medicine : eCAM, 2018).

Values after ≈ are worked out from the molar mass of the structure shown.

One series concerns P-gp. Put plainly: Transport of rhein across the Caco-2 cell monolayer (A to B, B to A). As to conditions: human, Caco-2, with verapamil 50 μmol/ml, loaded onto the A side; rhein 27.3 μg/ml; verapamil 50 μmol/ml (P-gp inhibitor); read-out: ER of rhein in presence of verapamil. The format is in vitro ADME, human. The protocol:
(§1) For transport experiments, the cells were seeded at a density of 1 × 10^5 cells/ml on polycarbonate membranes of cell culture inserts (6.5 mm membrane diameter, 0.4 μm pore size, and 0.33 cm^2 surface area) and placed in 12-well cell culture clusters. The transepithelial electrical resistance (TEER) was assessed using a Millicell ERS-2 (Millipore, USA) to reflect the tightness of intercellular junctions. […] The transports of rhein alone, rhein in RE, PE, RPE, and TWCQT across Caco-2 monolayers were investigated. Briefly, the cell monolayers were washed 3 times with D-Hanks. After each wash, the plates were incubated in fresh D-Hanks for 30 min at 37°C. The transport experiments were conducted by adding the test solution to either the apical (A, 0.5 ml) or basolateral side (B, 1.5 ml), while the receiving chamber contained the corresponding volume of prewarmed drug-free D-Hanks. Every experiment was repeated 3 times, and the plates were incubated in an orbital shaker at 37°C. […] sequential samples (50 μl) were taken at different times (30, 60, 90, 120, and 150 min) from both sides of the cell monolayer. The same volume of D-Hanks was immediately added to replace the samples obtained. […] All inhibitors were loaded onto the A side of the monolayers. […] The concentrations of all the samples were analyzed by UPLC-QTOF-HRMS-MS. Data in the present study were presented as mean ± standard deviation (SD). Significant analysis was performed using Statistical Package for Social Sciences (SPSS) version 16.0 (SPSS Inc., Chicago, IL, USA). Statistical significance was determined by one-way ANOVA with Dunnett's test and differences were considered significant when p < 0.05. In the Caco-2 cell model, the rate of transport was obtained from the amount transported versus time curve using linear regression. The apparent permeability (Papp) used as an expression of the absorption rate constant was calculated as follows: Papp = (dQ/dt)/(A × C0), where dQ/dt is the rate at which the compound appears in the receiver chamber (mg/s), A is the surface area of the filter membrane ([…]), and C0 is the initial concentration in the donor chamber (mg/mL). Efflux ratio (ER) was calculated from the following equation: ER = […]), where Papp(B to A) is the Papp value measured in the B to A direction and Papp(A to B) is the Papp value measured in the A to B direction.

Another series has as its system Caco-2 cell monolayer. Described as above. Format: in vitro ADME, human. The protocol:
as §1

The test system of a further series is MRP2. The series is described as above. The format is in vitro ADME, human. As to conditions: human, Caco-2, with MK-571 50 μmol/ml, loaded onto the A side; rhein 27.3 μg/ml; MK-571 50 μmol/ml (MRP2 inhibitor); read-out: ER of rhein in presence of MK-571. The protocol:
as §1

Assay in series [1]: as above
Conditions: human, Caco-2, PE, RPE. Format: in vitro ADME, human. Here is the method:
as §1

The test system of series [2] is BCRP. The series is described as above. Format: in vitro ADME, human. As to conditions: human, Caco-2, with Ko143 10 μmol/ml, loaded onto the A side; rhein 27.3 μg/ml; Ko143 10 μmol/ml (BCRP inhibitor); read-out: ER of rhein in presence of Ko143. The protocol: as §1
For the next series, the system named is Caco-2 cells. Put plainly: Cellular uptake of rhein in cultured Caco-2 cell monolayers. The format is in vitro ADME, human. As to conditions: rhein 27.3 μg/ml. The protocol: Cell monolayers were prepared as described for the transport studies. […] Cells attached to the polycarbonate membranes were cut off from the inserts, immersed in 1 ml blank D-Hanks, and sonicated for 15 min. The mixture was centrifuged at 10,000 ×g for 5 min. The concentrations of all the samples were analyzed by UPLC-QTOF-HRMS-MS.

In series [3] the test system is human colon adenocarcinoma cells (Caco-2). Also on record: method as in PMID 19538468. As to conditions: Caco-2, 0.1–10 μg/ml; cited from earlier work.
A short description of series [4]: MTT cytotoxicity assay on Caco-2 cells. Format: cell-based. As to conditions: human, 48 h exposure. The protocol:
Caco-2 cells were maintained in DMEM containing 10% FBS (inactivation at 56°C for 30 min), 1% NEAA, and 1% penicillin and streptomycin solution in a humidified atmosphere with 5% CO2 at 37°C. The medium was replaced every 2 days, and the cells were passaged at 80 to 90% confluence using trypsin/phosphate-buffered saline (PBS, pH 7.4). The cytotoxicity of rhein, RE, PE, RPE, and TWCQT to Caco-2 cells was evaluated by MTT assay. Briefly, 200 μl of Caco-2 cells was seeded in a 96-well plate (Coring, NY, USA) at a density of 2 × 10^4 cells/ml. Following incubation for 24 h, different concentrations of test solution were added. Thereafter, 20 μl of 5 mg/mL MTT was added, the medium was removed after 4 h, and the remaining formazan crystals were solubilized with 150 μl of dimethyl sulfoxide (DMSO). The absorbance was measured at 490 nm on a microplate reader (Thermo Scientific, Tokyo, Japan). Cells incubated without the test samples were used as controls. In each MTT assay, every sample was tested in 6 replicates.

For series [5], the system named is BCRP. Conditions: BCRP inhibitor; cited from earlier work.

For `O=C(O)c1cc(O)c2c(c1)C(=O)c1cccc(O)c1C2=O` [Rhein], the efflux ratio at 150 min, 27.3 μg/ml turned out to be 2.12 in the series on P-gp; 1.98 with MRP2; 2.83 in series [1] (rhein 27.3 μg/ml, TWCQT 1 mg/ml, read-out: ER PBA/PAB of rhein); 1.27 with BCRP [2]. Further, the “ER of rhein at different concentrations” value in the series with Caco-2 cell monolayer (8.61, 17.22, 34.44, 27.3, 54.6 and 109.2 μg/ml rhein) is on record as “more than 1.5”. In addition, the “amounts of rhein transported from B to A after Ko143” value in the series with Caco-2 cell monolayer (rhein 27.3 μg/ml, Ko143 10 μmol/ml, p < 0.01) is given as “significantly decreased”. Further, in the series on Caco-2 cell monolayer (rhein 27.3 μg/ml, MK-571 50 μmol/ml, p < 0.05), the “influence of MK-571 on Papp values of rhein from B to A” value is recorded as “significant influences”. In addition, in the series on Caco-2 cell monolayer (rhein 27.3 μg/ml, verapamil 50 μmol/ml), the “influence of verapamil on Papp values of rhein from A to B or B to A” value was “no significant influence”. Besides, the Papp (in general, the rate of passage across a membrane or cell layer, normalised by area and donor concentration) at 150 min, 27.3 μg/ml in series [1] (apical to basolateral, rhein 27.3 μg/ml, TWCQT 1 mg/ml, read-out: Papp PAB of rhein) was 2.31 ± 0.13 ×10⁻⁶ cm/s. In addition, in [1] (apical to basolateral, rhein 54.6 μg/ml, TWCQT 2 mg/ml, read-out: Papp PAB of rhein), the Papp at 150 min, 54.6 μg/ml came to 2.58 ± 0.26 ×10⁻⁶ cm/s. The Papp at 150 min, 109.2 μg/ml in series [1] (apical to basolateral, rhein 109.2 μg/ml, TWCQT 4 mg/ml, read-out: Papp PAB of rhein) is 2.52 ± 0.19 ×10⁻⁶ cm/s. The Papp B→A at 150 min, 27.3 μg/ml in series [1] (basolateral to apical, rhein 27.3 μg/ml, TWCQT 1 mg/ml, read-out: Papp PBA of rhein) worked out at 6.54 ± 0.27 ×10⁻⁶ cm/s. Besides, the Papp B→A at 150 min, 54.6 μg/ml in series [1] (basolateral to apical, rhein 54.6 μg/ml, TWCQT 2 mg/ml, read-out: Papp PBA of rhein) came to 7.02 ± 0.58 ×10⁻⁶ cm/s. Moreover, the Papp B→A at 150 min, 109.2 μg/ml in series [1] (basolateral to apical, rhein 109.2 μg/ml, TWCQT 4 mg/ml, read-out: Papp PBA of rhein) was 6.72 ± 0.31 ×10⁻⁶ cm/s. The efflux ratio at 150 min, 54.6 μg/ml in series [1] (rhein 54.6 μg/ml, TWCQT 2 mg/ml, read-out: ER PBA/PAB of rhein) is 2.72. In addition, the efflux ratio at 150 min, 109.2 μg/ml in [1] (rhein 109.2 μg/ml, TWCQT 4 mg/ml, read-out: ER PBA/PAB of rhein) was determined as 2.38. In addition, the “intracellular accumulation of rhein after Ko143” value in the series with Caco-2 cells (2 h, Ko143 10 μmol/ml) is recorded as “significantly increased”. Besides, the “intracellular amounts of rhein after MK-571” value with Caco-2 cells (2 h, MK-571 50 μmol/ml) was “no significant changes”. Moreover, the “intracellular amounts of rhein after verapamil” value with Caco-2 cells (2 h, verapamil 50 μmol/ml) is on record as “no significant changes”. Also, in the series with Caco-2 cells (A compartment, 2 h incubation), the “cellular uptake of rhein” value came to 0.68 ng/μg protein. For the same molecule, the “cytotoxic and genotoxic effects” value in series [3] is “devoid of cytotoxic and genotoxic effects”. Further, in series [4], the IC50 (usually the point on the concentration scale where inhibition reaches its midpoint) at 48 h is 3490 ± 960 µg/mL (≈ 12.3 mM).
Consider `COc1ccc2c3c([nH]c2c1)[C@H](CC(C)C)N1C(=O)[C@H](CCC(=O)OC(C)(C)C)NC(=O)[C@@H]1C3` [Ko143], for which, in the series on BCRP [5], the “selectivity over P-gp and MRP1 transporters” value was “higher than 200 fold”.
